From EPA's ToxValDB 9.5 (doi:10.2903/j.efsa.2009.186r)
Converted amounts (≈) assume the structure as drawn.

Key:
[1] = test system: Tagia sp.; settings: acute; duration: 14 days; mortality
[2] = test system: Anas platyrhynchos; settings: acute; oral; unspecified; mortality
[3] = test system: Rattus norvegicus
[4] = test system: Daphnia magna; settings: chronic/long-term; duration: 21 days; reproduction
[5] = test system: Apis mellifera; settings: acute; duration: 48 hours; oral; unspecified; mortality
[6] = test system: Canidae; settings: chronic; duration: 1 years; oral; Dog Other; clinical signs
[7] = test system: Colinus virginianus; settings: for LD50: acute, oral, mortality
[8] = test system: Bibionidae; settings: chronic/long-term; duration: 28 days
[9] = test system: Aphidius rhopalosiphi; settings: not reported; mortality
[10] = test system: Oncorhynchus mykiss
[11] = test system: Mus musculus; settings: acute; oral; mortality

SMILES: Cc1c(COC(=O)[C@@H]2[C@H](/C=C(\Cl)C(F)(F)F)C2(C)C)cccc1-c1ccccc1 [Bifenthrin]
- LC50 [1]: > 16 mg/kg
- LD50 [2]: > 2150 mg/kg
- NOAEL ([3]; developmental, development): > 2 mg/kg-day
- NOAEL ([3]; reproduction developmental, reproduction): 3 mg/kg-day
- NOAEL ([3]; subchronic, duration: 90 days, oral, neurology): 2.9 mg/kg-day
- NOEC [4]: 9.5e-07 mg/L
- LD50 [5]: 0.1 µg/piece
- NOAEL [6]: 1.5 mg/kg-day
- LD50 ([7]; diet): 569 mg/kg-day
- LD50 [7]: 1800 mg/kg
- NOEC ([7]; reproduction developmental): 75 mg/kg-day
- NOEC [8]: 0.00032 mg/L
- LEL [9]: 60 g/ha
- LC50 ([10]; acute, duration: 96 hours, mortality): 0.1 ng/mL (≈ 0.236 nM)
- NOEC ([10]; chronic/long-term, duration: 30 days, other): 1.2e-05 mg/L
- LD50 [11]: 42.5 mg/kg
